Common to all, as to test: Enzyme Assay
Conditions in all cases: 30 °C

For test [1], the target named is Calcium/calmodulin-dependent protein kinase type II subunit beta (Homo sapiens, UniProt Q13554). The source says: (§1) Protein kinase C, cAMP dependent protein kinase, cGMP dependent protein kinase and myosin light chain kinase activity were measure under conditions described by Hidaka. Casein kinases I and II activities were meas8ured as described by Chijiwa. Ca/ calmodulin kinase II activity was measure d by the method described by McGuinness.

Test [2] concerns the target T1, cGMP-dependent protein kinase 1 (Homo sapiens, UniProt Q13976).
T1 sequence (Q13976 whole entry): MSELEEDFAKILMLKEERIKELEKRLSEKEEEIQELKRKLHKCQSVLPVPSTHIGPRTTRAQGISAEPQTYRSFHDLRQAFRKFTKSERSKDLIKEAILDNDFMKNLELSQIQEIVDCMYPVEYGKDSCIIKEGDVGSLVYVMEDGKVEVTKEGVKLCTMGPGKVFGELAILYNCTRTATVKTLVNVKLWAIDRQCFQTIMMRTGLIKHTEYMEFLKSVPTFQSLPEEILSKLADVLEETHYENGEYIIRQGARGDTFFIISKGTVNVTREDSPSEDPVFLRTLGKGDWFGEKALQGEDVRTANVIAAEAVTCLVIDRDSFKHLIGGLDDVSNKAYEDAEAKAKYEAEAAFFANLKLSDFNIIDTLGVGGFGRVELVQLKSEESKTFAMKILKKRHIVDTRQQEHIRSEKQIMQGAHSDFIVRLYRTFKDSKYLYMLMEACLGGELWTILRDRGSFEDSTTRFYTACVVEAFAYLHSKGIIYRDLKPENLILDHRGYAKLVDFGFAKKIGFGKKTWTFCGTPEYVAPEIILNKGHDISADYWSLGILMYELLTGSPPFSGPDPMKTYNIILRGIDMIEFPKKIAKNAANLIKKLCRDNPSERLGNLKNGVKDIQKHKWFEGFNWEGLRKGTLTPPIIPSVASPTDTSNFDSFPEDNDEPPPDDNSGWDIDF
Description: as §1

The target in test [3] is cAMP-dependent protein kinase catalytic subunit alpha (Homo sapiens, UniProt P17612).
Description: as §1

The target in test [4] is Casein kinase I isoform alpha (Homo sapiens, UniProt P48729).
Description: as §1

Test [5] concerns the target Casein kinase II subunit alpha (Homo sapiens, UniProt P68400).
Description: as §1

In test [6] the target is Protein kinase C alpha type (Homo sapiens, UniProt P17252).
Description: as §1

This passage reports Ki results from BindingDB's records for PubMed 2156866 (Nagoya University School of Medicine, 1990).

Calcium/calmodulin-dependent protein kinase type II subunit beta, sequence (Q13554 whole entry): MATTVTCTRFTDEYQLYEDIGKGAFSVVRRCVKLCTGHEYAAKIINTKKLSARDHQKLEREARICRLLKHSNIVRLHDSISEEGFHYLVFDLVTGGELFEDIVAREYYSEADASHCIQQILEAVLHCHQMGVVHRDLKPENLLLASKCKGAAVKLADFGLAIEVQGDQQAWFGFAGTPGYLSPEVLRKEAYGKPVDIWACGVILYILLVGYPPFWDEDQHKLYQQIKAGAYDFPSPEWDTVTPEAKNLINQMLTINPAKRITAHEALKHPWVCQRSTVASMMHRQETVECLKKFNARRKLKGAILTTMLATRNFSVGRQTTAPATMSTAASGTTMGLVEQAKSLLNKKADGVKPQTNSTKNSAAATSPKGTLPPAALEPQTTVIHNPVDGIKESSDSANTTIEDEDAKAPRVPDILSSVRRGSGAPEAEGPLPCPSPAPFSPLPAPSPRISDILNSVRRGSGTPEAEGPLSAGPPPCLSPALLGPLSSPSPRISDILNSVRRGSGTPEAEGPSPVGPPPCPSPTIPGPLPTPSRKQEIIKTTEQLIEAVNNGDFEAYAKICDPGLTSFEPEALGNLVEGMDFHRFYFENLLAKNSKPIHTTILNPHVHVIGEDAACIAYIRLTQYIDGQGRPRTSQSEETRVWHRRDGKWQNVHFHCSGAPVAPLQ
Casein kinase II subunit alpha, sequence (P68400 whole entry): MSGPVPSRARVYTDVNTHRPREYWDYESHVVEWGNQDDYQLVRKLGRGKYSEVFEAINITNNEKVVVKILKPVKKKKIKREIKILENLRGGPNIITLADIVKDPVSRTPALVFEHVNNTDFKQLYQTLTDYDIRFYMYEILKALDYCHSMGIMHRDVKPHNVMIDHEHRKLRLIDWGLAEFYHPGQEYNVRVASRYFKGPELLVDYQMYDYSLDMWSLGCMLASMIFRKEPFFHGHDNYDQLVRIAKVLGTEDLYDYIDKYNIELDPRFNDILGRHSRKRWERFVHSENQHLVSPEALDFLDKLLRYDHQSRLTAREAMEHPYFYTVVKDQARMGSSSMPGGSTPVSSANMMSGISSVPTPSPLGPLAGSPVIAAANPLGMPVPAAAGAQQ
Casein kinase I isoform alpha, sequence (P48729 whole entry, canonical isoform): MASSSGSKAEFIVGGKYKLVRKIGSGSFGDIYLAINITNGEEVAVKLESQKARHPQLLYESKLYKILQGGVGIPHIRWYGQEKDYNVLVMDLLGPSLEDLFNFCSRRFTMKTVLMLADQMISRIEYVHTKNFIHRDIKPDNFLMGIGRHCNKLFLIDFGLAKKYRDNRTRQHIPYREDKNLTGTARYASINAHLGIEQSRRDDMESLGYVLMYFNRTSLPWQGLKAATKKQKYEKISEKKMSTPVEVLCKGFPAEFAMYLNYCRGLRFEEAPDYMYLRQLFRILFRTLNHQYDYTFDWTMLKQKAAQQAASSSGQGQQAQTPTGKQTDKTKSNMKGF

For orientation: Ki means a dissociation constant, usually derived from enzyme kinetics or from competition with a known ligand. As for `O=S(=O)(NCCNC/C=C/c1ccc(Br)cc1)c1cccc2cnccc12`, the Ki in test [1] stood at 29.7 µM; in test [2], 0.48 µM.

Take `O=S(=O)(NCCNC/C=C/c1ccccc1)c1cccc2cnccc12` [H-88]: the Ki in test [3] was determined as 0.36 µM; in test [4] it was 60.7 µM; in test [1], 71.3 µM; in test [5], 104 µM; in test [2], 0.76 µM; in test [6], 75.7 µM.
